The results in this text go back to patent US11078175B2, “Substituted dihydrobenzofuran compounds and their use as synergists” (ENDURA S.P.A., priority 2015, dated 2021).

Series [1] deals with T1, FE4 Myzus persicae esterases (Myzus persicae, UniProt P35502).
T1 construct: would be utilised for the purified esterases from aphids; from tissue; host or cells: aphids (Myzus persicae)
T1 sequence (P35502 24-564): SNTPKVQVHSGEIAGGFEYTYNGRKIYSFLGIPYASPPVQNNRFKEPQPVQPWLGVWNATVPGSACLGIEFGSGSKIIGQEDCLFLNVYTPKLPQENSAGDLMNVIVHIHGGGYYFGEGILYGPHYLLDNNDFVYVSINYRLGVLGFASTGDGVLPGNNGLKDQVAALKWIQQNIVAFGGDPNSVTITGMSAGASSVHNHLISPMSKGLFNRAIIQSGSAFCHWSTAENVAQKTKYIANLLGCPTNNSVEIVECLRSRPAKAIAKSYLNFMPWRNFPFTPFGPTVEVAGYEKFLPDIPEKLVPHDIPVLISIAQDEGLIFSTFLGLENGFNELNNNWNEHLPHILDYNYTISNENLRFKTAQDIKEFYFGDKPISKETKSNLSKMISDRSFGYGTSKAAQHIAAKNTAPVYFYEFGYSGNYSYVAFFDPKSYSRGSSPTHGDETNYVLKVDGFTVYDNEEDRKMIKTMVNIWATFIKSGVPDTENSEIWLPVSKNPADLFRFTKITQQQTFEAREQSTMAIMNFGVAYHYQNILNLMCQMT
The series can be described thus: Inhibition of esterase enzymes, 4-nitrophenyl acetate substrate with purified FE4. Format: biochemical. Conditions: 2.5 μL of 10 mM compound in acetone added to 50 μL, 10 min incubation, substrate 4-nitrophenyl acetate 0.8 mM final, acetone-only control. The protocol:
It was envisaged, therefore, that the ‘esterase intereference assay’ (Khot et al., 2008) would be utilised for the purified esterases from aphids. Various esterase substrates were assessed to find one suitable of monitoring inhibition in an insect homogenate. The Myzus persicae resistance associated esterase, FE4, was used.
From the literature (Philippou et al., 2013) it is known that 1-naphthyl acetate is not suitable for this assay. Instead, 4-nitrophenyl acetate was used. A 10 mM pNA stock was prepared in acetone and added to 0.02 M phosphate buffer pH 7.0 (final concentration 2 mM). The comparison was made with 6 PBO analogues of variable efficacy.
For the assay 10 μL of purified FE4 was diluted to a total volume of 50 μL by the addition of 0.02 M phosphate buffer, pH 7.0 in individual wells of a microplate (maxisorb, NUNC). To each well, 2.5 μL of 10 mM of the compound of Example 1 and of Example 2 in acetone was added and incubated for 10 mins, with acetone only used as a control. Following incubation, 100 μL of 0.02 M phosphate buffer, pH 7.0 and 100 μL of 2 mM 4-nitrophenyl acetate was added (final volume in well 250 μL, final substrate concentration 0.8 mM). Enzyme activity was read at 405 nm in a Spectramax Tmax for 5 min, with readings taken every 5 secs. The rate (mOD min^−1) was calculated by the integrated software, Softmax Pro v.5.4.

In a further series the test system is Bemisia tabaci CYP6CM1. Conditions: recombinant CYP6CM1; 3 μL of 10 mM compound stock in acetone added to 50 μL enzyme; 10 min incubation at room temperature; substrate 7-ethoxycoumarin; acetone-only control.

The term remaining activity denotes what remains of the control signal, in per cent. A higher remaining activity goes with much activity left.

Description for Bemisia tabaci CYP6CM1: Ability of the compounds of the invention to inhibit oxidative enzymes (P450), a major mechanism conferring resistance to xenobiotics, was measured using recombinant enzymes corresponding to CYPCM1 from Bemisia tabaci.
Diluted recombinant enzyme (50 μL) was mixed with 3 μL of a.m compounds stock solutions, with acetone only used as a control. After 10 min incubation at room temperature, 80 μL of 0.125 mM 7-ethoxycoumarin was added, followed by 10 μL 9.6 mM NADPH (nicotinamide adenine dinucleotide phosphate) in 0.1 M sodium phosphate, pH 7.8, and 0-deethylation activity monitored as above. A PBO solution (10 mM) was prepared in the same way as a comparison.

For `CCCCOCCOCCOCc1cc(CCC)cc2c1OCC2` [Compound of Example 1, 5-propyl-7-[[2-(2-Butoxyethoxy)ethoxy]methyl]-2,3-dihydrobenzo furan], in series [1], the remaining activity at 10000 µM (stock) was 33.2%. Further, in the series on Bemisia tabaci CYP6CM1, the “% activity remaining” value is recorded as 38.47%.

`CCCCCCc1cc2c(c(COCCOCCOCCCC)c1)OCC2` [Compound of Example 2, 5-n-hexyl-7-[[2-(2-Butoxyethoxy)ethoxy]methyl]-2,3-dihydrobenzo furan] yielded a remaining activity at 10000 µM (stock) in series [1] of 40.6%. The “% activity remaining” value in the series with Bemisia tabaci CYP6CM1 stood at 86.22%.
